Test results published in ChEMBL document CHEMBL3286269, “Group A streptococcus inhibitors by high-throughput virtual screening” (2014).
Values after ≈ are worked out from the molar mass of the structure shown.

System: Streptococcus sp. 'group A'
Assay: Antibacterial activity against group A streptococcus MGAS2221 after 12 hrs by microscopic count analysis
Format: functional
Details: MGAS2221, 12 h

Compound | MIC [µM]
O=Cc1cc(Cl)cc(Cl)c1O | 20 (≈ 3.82 µg/mL)
O=C1NN=CC1CCC/N=C/c1cc(Cl)cc(Cl)c1O (configuration not stated) | 10 (≈ 3.14 µg/mL)
Oc1c(Cl)cc(Cl)cc1/C=N/CC1CCC(C/N=C/c2cc(Cl)cc(Cl)c2O)CC1 (configuration not stated) | 10 (≈ 4.88 µg/mL)
OCC/N=C/c1cc(Cl)cc(Cl)c1O | 20 (≈ 4.68 µg/mL)
Oc1c(Cl)cc(Cl)cc1/C=N/CC1CCCO1 (configuration not stated) | 20 (≈ 5.48 µg/mL)
O=C1NN=CC1CCC/N=C/c1cc(Br)ccc1O (configuration not stated) | 40 (≈ 13 µg/mL)
Cc1ccc([N+](=O)[O-])c(NC(=O)NC(=O)c2c(Cl)cccc2Cl)c1C | 50 (≈ 19.1 µg/mL)
